Earlier results, collected in US9969773B2, “Polymers, pharmaceutical compositions and methods of synthesizing the same” (NEW YORK UNIVERSITY, priority 2014, dated 2018).

half-life in serum: ~5 min
Compound: CC[C@H](C)[C@H](NC(=O)[C@H](CCC(=O)O)NC(=O)[C@H](CO)NC(=O)[C@@H](NC(=O)[C@@H](N)CO)C(C)C)C(=O)N[C@@H](CCC(N)=O)C(=O)N[C@@H](CC(C)C)C(=O)N[C@@H](CCSC)C(=O)N[C@@H](Cc1cnc[nH]1)C(=O)N[C@@H](CC(N)=O)C(=O)N[C@@H](CC(C)C)C(=O)NCC(=O)N[C@@H](CCCCN)C(=O)N[C@@H](Cc1cnc[nH]1)C(=O)N[C@@H](CC(C)C)C(=O)N[C@@H](CC(N)=O)C(=O)N[C@@H](CO)C(=O)N[C@@H](CCSC)C(=O)N[C@@H](CCC(=O)O)C(=O)N[C@@H](CCCN=C(N)N)C(=O)N[C@H](C(=O)N[C@@H](CCC(=O)O)C(=O)N[C@@H](Cc1c[nH]c2ccccc12)C(=O)N[C@@H](CC(C)C)C(=O)N[C@@H](CCCN=C(N)N)C(=O)N[C@@H](CCCCN)C(=O)N[C@@H](CCCCN)C(=O)N[C@@H](CC(C)C)C(=O)N[C@@H](CCC(N)=O)C(=O)N[C@@H](CC(=O)O)C(=O)N[C@H](C(=O)N[C@@H](Cc1cnc[nH]1)C(=O)N[C@@H](CC(N)=O)C(=O)N[C@@H](Cc1ccccc1)C(=O)O)C(C)C)C(C)C [PTH (1-34), parathyroid hormone (1-34)]
